{"source": "patent US20240294478A1", "about": "“ANTI-CANCER COMPOUNDS AND METHODS OF USE” (YALE UNIVERSITY, priority 2021, published 2024)", "key": {"[1]": {"test_system": "linearized pUC19 plasmid DNA", "assay": "In vitro DNA cross-linking assay", "assay_type": "biochemical", "conditions": "100 μM", "experimental": "Plasmid Linearization Assay. To set up the linearization reactions, 20 units of EcoRI-HF (New England Biolabs) was mixed with 20 μg 2686 bp pUC19 vector DNA in CutSmart buffer (New England Biolabs), pH 7.9, in a total volume of 1000 μL for 30 min at 37° C. The CutSmart buffer contains 50 mM potassium acetate, 20 mM Tris acetate, 10 mM magnesium acetate, and 100 μg/mL BSA. The reacted DNA was then purified using PCR cleanup kit and quantified using the NanoDrop One (Thermo Fisher). The DNA was then stored at −20° C. before use in in vitro DNA cross-linking assays or melting temperature analysis.\nIn Vitro DNA Cross-linking Assays. Linearized pUC19 DNA, prepared as described above, was used for in vitro DNA cross-linking assays. For each condition, 200 ng of linearized pUC19 DNA (15.4 μM base pairs) was incubated with the indicated concentration of drug in 20 μL. Drug stock concentrations were made in DMSO such that each reaction contained a fixed 5% DMSO concentration. Reactions were conducted in 100 mM Tris buffer (pH 7.4). Cisplatin (Sigma) and DMSO vehicle were used as positive and negative controls, respectively. Reactions were conducted between 3-96 h at 37° C. The DNA was stored at −80° C. until electrophoretic analysis. For gel electrophoresis, DNA concentration was preadjusted to 10 ng/μL. […]"}, "[2]": {"test_system": "isogenic mouse embryonic fibroblasts (MEFs) proficient or deficient in XPA", "assay": "Short-term cell viability, XPA proficient or deficient MEFs", "assay_type": "cell-based", "conditions": "with or without O6BG-induced MGMT depletion", "experimental": "(§1) Columns, mean; error bars, SD; n=2 independent analyses. For (A) and (C), points, mean; error bars, SD; n=3 technical replicates.\nThe potential for alternative mechanisms of action for KL-50 were probed implicating nucleotide excision repair (NER), base excision repair (BER), reactive oxygen species (ROS), and DNA duplex destabilization.\n(§2) Short-term Cell Viability Assay. Cells were seeded in 96-well plates at 1000 or 2000 cells/well and allowed to adhere at 23° C. for 60 min and then incubated overnight at 37° C. Cells were treated with indicated concentrations of compounds in triplicate for 4-6 days prior to fixation with 3.7% paraformaldehyde and nuclear staining with 1 μg/mL Hoechst 33342 dye. Cells were imaged on a Cytation 3 imaging reader (BioTek) and quantified using CellProfiler software. For in vitro short-term growth delay experiments, IC50 values were determined from the nonlinear regression equation, [inhibitor] vs normalized response with variable slope."}, "[3]": {"test_system": "linearized pUC19 plasmid DNA", "assay": "Melting temperature assay", "assay_type": "biochemical", "conditions": "100 or 500 μM for 3 h", "experimental": "as §1\nMelting Temperature Assay. Linearized pUC19 DNA (750 ng), prepared as described above, was incubated with the indicated concentration of either MMS or KL-50 adjusted in a final volume of 18 μL in 100 mM Tris buffer (pH 7.4) for 3 h. Drug stock concentrations were made in DMSO such that each reaction contained a fixed 5% DMSO concentration. Afterwards, 1 μL each of 20×SYBR Green dye (Invitrogen) and 20×ROX reference dye (Invitrogen) was added and melting temperature analysis was run on a StepOnePlus RT PCR System (Applied Biosciences) to generate melting temperature curves."}, "[4]": {"test_system": "PD20 cells, deficient in FANCD2 (FANCD2−/−) or complemented with FANCD2", "assay": "Short-term viability assay, PD20 cells", "assay_type": "cell-based, human", "conditions": "PD20 FANCD2−/− vs +FANCD2", "experimental": "(§3) FIGS. 8A-8K. (FIG. 8A) Change in percent cells with 1 micronuclei from baseline (DMSO control) after treatment as in FIGS. 5A and 5C. […] (FIG. 8B) Short-term viability assay curves for KL-50 in PD20 cells, deficient in FANCD2 (FANCD2−/−) or complemented with FANCD2 (+FANCD2). (FIG. 8C) Short-term viability assay curves for KL-50 in PEO4 (BRCA2+) and PEO1 (BRCA2−/−) cells pre-treated with 0.01% DMSO control or 10 μM O^6BG (+O^6BG) for 1 h prior to KL-50 addition. (FIG. 8D) Short-term viability assay curves for KL-50 in DLD1 BRCA2+/− and BRCA2−/−cells pre-treated with 0.01% DMSO control or 10 μM O^6BG (+O^6BG) for 1 h prior to KL-50 addition. For FIGS. 8B-8D, points, mean; error bars, SD; n=3 technical replicates. […] Change in percent cells with 1 micronuclei from baseline (DMSO control) after treatment with olaparib (10 μM) for 48 h in LN229 MGMT+/−, MMR+/−cells. […] Western blot analysis of FANCD2 ubiquitination in LN229 MGMT+/−, MMR+/−cells and PD20 FANCD2-deficient cells, complemented with empty vector (FANCD2+EV), wildtype FANCD2 (PD20+FD2) or ubiquitination-mutant FANCD2 (PD20+KR). The % FANCD2 ubiquitination (% FANCD2 Ub) is quantified as the background-corrected integrated band intensity of the upper band divided by the sum of the background-corrected integrated band intensities of the upper and lower bands. The fold change in % FANCD2 ubiquitination is presented for each cell line relative to DMSO-treated cells. Vinculin serves as loading control. For 8J-8K, points, mean; error bars, SD; n=3 technical replicates.\nas §2, with “Cells were treated with indicated concentrations of compounds in triplicate for 4-6 days prior to fixation with 3.7% paraformaldehyde and nuclear staining with 1 μg/mL Hoechst 33342 dye.” left out"}, "[5]": {"test_system": "DLD1 BRCA2+/− and BRCA2−/− cells", "assay": "Short-term viability assay, DLD1 BRCA2 isogenic model +/- O6BG", "assay_type": "cell-based, human", "experimental": "as §3\nas §2, with “Cells were treated with indicated concentrations of compounds in triplicate for 4-6 days prior to fixation with 3.7% paraformaldehyde and nuclear staining with 1 μg/mL Hoechst 33342 dye.” left out"}}, "data": [{"smiles": "NC(=O)c1ncn2c(=O)n(CCF)nnc12", "note": "[KL-50]", "values": [{"measurement": "ICLs in plasmid DNA", "setting": "[1]", "result": "possessed ICLs, with delayed rates of formation"}, {"measurement": "sensitivity of XPA-deficient vs proficient MEFs", "setting": "[2]", "result": "no differential sensitivity"}, {"measurement": "change in DNA melting temperature", "setting": "[3]", "result": "comparable changes in measured DNA melting temperature"}, {"measurement": "sensitivity of FANCD2-deficient cells", "setting": "[4]", "result": "hypersensitive"}, {"measurement": "therapeutic index (TI), ratio of IC50 values in MGMT+/BRCA2+ cells compared to MGMT−/BRCA2− cells", "setting": "[5]; DLD1 isogenic model", "result": "~600", "unit": "fold"}, {"measurement": "effect of BRCA2 loss on toxicity", "setting": "[5]; two MGMT-proficient cell models, following MGMT depletion via O6BG", "result": "BRCA2 loss enhanced the toxicity"}]}]}
